Results as given in ChEMBL document CHEMBL1153947, “Carbonic anhydrase inhibitors. Inhibition of cytosolic isoforms I, II, III, VII and XIII with less investigated inorganic anions” (Bioorg Med Chem Lett, 2009).

What follows are compounds tested against Carbonic anhydrase 13 (Mus musculus, UniProt Q9D6N1) (assay: Inhibition of mouse recombinant carbonic anhydrase 13-catalyzed CO2 hydration by stopped flow assay).
Carbonic anhydrase 13, sequence (Q9D6N1 whole entry): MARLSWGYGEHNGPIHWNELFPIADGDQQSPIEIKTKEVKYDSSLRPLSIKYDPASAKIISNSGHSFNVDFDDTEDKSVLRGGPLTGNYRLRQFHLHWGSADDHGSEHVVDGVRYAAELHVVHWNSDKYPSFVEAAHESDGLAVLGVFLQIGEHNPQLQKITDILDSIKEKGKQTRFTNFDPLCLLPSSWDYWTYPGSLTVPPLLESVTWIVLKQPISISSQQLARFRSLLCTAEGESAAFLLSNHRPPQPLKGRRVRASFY

| SMILES | Ki |
| --- | --- |
| CCN(CC)C(=S)S [DITIOCARB SODIUM] | 56 µM |
| S=C(S)S [SODIUM CARBONOTRITHIOATE] | 430 µM |
| O=S(=O)(O)NS(=O)(=O)O [SODIUM IMINODISULFONATE] | 980 µM |
| O=S(=O)(O)OOS(=O)(=O)O [SODIUM PERSULFATE] | 4310 µM |
| O=P(O)(O)OP(=O)(O)O [SODIUM PYROPHOSPHATE] | 730 µM |
| O=S(=O)(O)OS(=O)(=O)O [SODIUM PYROSULFATE] | 710 µM |
| O=[Se](=O)(O)O [SODIUM SELENATE] | 484000 µM |
| N#C[SeH] [SODIUM SELENOCYANATE] | 26500 µM |
| O=[Te](=O)(O)O [SODIUM TELLURATE] | 380 µM |

What follows are compounds tested against Carbonic anhydrase 2 (Homo sapiens, UniProt P00918) (assay: Inhibition of human recombinant carbonic anhydrase 2-catalyzed CO2 hydration by stopped flow assay).

| SMILES | Ki |
| --- | --- |
| O=S(=O)(O)OS(=O)(=O)O [SODIUM PYROSULFATE] | 970 µM |

What follows are compounds tested against Carbonic anhydrase 1 (Homo sapiens, UniProt P00915) (assay: Inhibition of human recombinant carbonic anhydrase 1-catalyzed CO2 hydration by stopped flow assay).
Carbonic anhydrase 1, sequence (P00915 whole entry): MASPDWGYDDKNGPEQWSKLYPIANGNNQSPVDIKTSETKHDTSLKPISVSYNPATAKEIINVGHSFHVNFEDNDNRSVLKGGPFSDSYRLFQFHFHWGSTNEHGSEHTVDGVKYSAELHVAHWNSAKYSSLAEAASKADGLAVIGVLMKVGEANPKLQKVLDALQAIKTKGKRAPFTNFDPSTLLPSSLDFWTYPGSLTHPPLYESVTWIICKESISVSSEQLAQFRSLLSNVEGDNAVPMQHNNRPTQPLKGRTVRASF

| SMILES | Ki |
| --- | --- |
| CCN(CC)C(=S)S [DITIOCARB SODIUM] | 0.79 µM |
| S=C(S)S [SODIUM CARBONOTRITHIOATE] | 8.7 µM |
| O=S(=O)(O)NS(=O)(=O)O [SODIUM IMINODISULFONATE] | 310 µM |
| O=P(O)(O)OP(=O)(O)O [SODIUM PYROPHOSPHATE] | 25800 µM |
| O=S(=O)(O)OS(=O)(=O)O [SODIUM PYROSULFATE] | 990 µM |
| O=[Se](=O)(O)O [SODIUM SELENATE] | 118000 µM |
| N#C[SeH] [SODIUM SELENOCYANATE] | 85 µM |
| O=[Te](=O)(O)O [SODIUM TELLURATE] | 660 µM |

What follows are compounds tested against Carbonic anhydrase 7 (Homo sapiens, UniProt P43166) (assay: Inhibition of human recombinant carbonic anhydrase 7-catalyzed CO2 hydration by stopped flow assay).
Carbonic anhydrase 7, sequence (P43166 whole entry): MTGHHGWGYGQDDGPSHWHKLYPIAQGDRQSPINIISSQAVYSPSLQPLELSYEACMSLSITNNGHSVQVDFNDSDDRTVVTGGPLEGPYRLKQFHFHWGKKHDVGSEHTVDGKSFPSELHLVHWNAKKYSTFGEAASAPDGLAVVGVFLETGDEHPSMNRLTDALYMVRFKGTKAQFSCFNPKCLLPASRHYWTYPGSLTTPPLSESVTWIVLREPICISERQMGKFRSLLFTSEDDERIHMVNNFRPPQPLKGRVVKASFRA

| SMILES | Ki |
| --- | --- |
| CCN(CC)C(=S)S [DITIOCARB SODIUM] | 1470 µM |
| S=C(S)S [SODIUM CARBONOTRITHIOATE] | 36200 µM |
| O=S(=O)(O)NS(=O)(=O)O [SODIUM IMINODISULFONATE] | 39100 µM |
| O=S(=O)(O)OOS(=O)(=O)O [SODIUM PERSULFATE] | 3110 µM |
| O=P(O)(O)OP(=O)(O)O [SODIUM PYROPHOSPHATE] | 870 µM |
| O=S(=O)(O)OS(=O)(=O)O [SODIUM PYROSULFATE] | 760 µM |
| O=[Se](=O)(O)O [SODIUM SELENATE] | 215000 µM |
| N#C[SeH] [SODIUM SELENOCYANATE] | 1100 µM |
| O=[Te](=O)(O)O [SODIUM TELLURATE] | 460 µM |
